Laboratory results taken from patent US10137113B2, “5-HT4 receptor agonist as a prokinetic agent” (RaQualia Pharma Inc., priority 2011, dated 2018).

Legend:
[1] = system: gastric antrum of conscious dogs; test: Gastric antral motility by implanted force transducers, fasted conscious dogs, oral dosing; format: in vivo, dog
Procedure: (§1) GI motility was assessed by processing the signals from the force transducers implanted in dogs prepared for investigation of motility. Briefly, dogs were anesthetized with isoflurane and the abdominal cavity was opened under aseptic conditions. Extraluminal force transducers (F-12IS, Star Medical, Tokyo) were sutured onto the seromuscular layer of the gastric antrum, the gastric body, the duodenum, and the proximal colon. After the surgery, protective jackets were placed on the dogs and they were housed in individual cages. The dogs were fasted overnight before the experiment and placed in the shield room. The motility was measured with a telemetry system (GTS-800, Star Medical, Tokyo) and data acquired into a personal computer with the acquisition software (Eight Star, Star Medical, Tokyo). After confirmation of interdigestive migrating complex (IMC), the test drugs were administered orally. Gut motility was then recorded more than 5 hours (hrs). To measure the gastric motility quantitatively, motor indexes that represent areas of contractions were calculated. The signals from the force transducer were acquired on a personal computer and analyzed by processing software (Analyze II; StarMedical). In the fasted state, the areas surrounded by the contraction curve and the baseline were determined every 2 hrs after administration. For standardization, the calculated areas were divided by the IMC peak height before administration, and they were used as the motor index (MI). Results are presented as the mean+/− standard error of the mean (S.E.M., N=4-5). Statistical analysis was performed with Dunnett's multiple comparison test using GraphPad Prism (GraphPad Software, Inc.).

[2] = system: proximal colon of conscious dogs; test: Proximal colon motility by implanted force transducers, fasted conscious dogs, oral dosing; format: in vivo; conditions: dog
Procedure: as §1

[3] = system: gastric antrum and duodenum of conscious dogs; test: Gastro-duodenum contractions by implanted force transducers, fasted conscious dogs, oral dosing; format: in vivo; conditions: dog, 0.3 mg/kg (dose that enhances proximal colon motility), FIG. 5
Procedure: GI motility was assessed by processing the signals from the force transducers implanted in dogs prepared for investigation of motility. Briefly, dogs were anesthetized with isoflurane and the abdominal cavity was opened under aseptic conditions. Extraluminal force transducers (F-12IS, Star Medical, Tokyo) were sutured onto the seromuscular layer of the gastric antrum, the gastric body, the duodenum, and the proximal colon. After the surgery, protective jackets were placed on the dogs and they were housed in individual cages. The dogs were fasted overnight before the experiment and placed in the shield room. The motility was measured with a telemetry system (GTS-800, Star Medical, Tokyo) and data acquired into a personal computer with the acquisition software (Eight Star, Star Medical, Tokyo). […] Gut motility was then recorded more than 5 hours (hrs). To measure the gastric motility quantitatively, motor indexes that represent areas of contractions were calculated. The signals from the force transducer were acquired on a personal computer and analyzed by processing software (Analyze II; StarMedical). In the fasted state, the areas surrounded by the contraction curve and the baseline were determined every 2 hrs after administration. For standardization, the calculated areas were divided by the IMC peak height before administration, and they were used as the motor index (MI). […]

COc1cc(N)c(Cl)cc1C(=O)NC1CCN(CCCOc2ccc(F)cc2)CC1OC (stereo not drawn) [Cisapride, cisapride]
gastric antral motility ([1]; dog, fasted, oral, 1 mg/kg, FIG. 2): significantly increased gastric antral motility

O=C(O)C1(CN2CCC(COc3noc4cccc(OCC(F)(F)F)c34)CC2)CCOCC1 [Compound A, 4-{[4-({[4-(2,2,2-trifluoroethoxy)-1,2-benzisoxazol-3-yl]-oxy}methyl)piperidin-1-yl]methyl}tetrahydro-2H-pyran-4-carboxylic acid]
effects on GI motility / potency relative to other 5-HT4 agonists (cisapride, mosapride, tegaserod) ([1]; dog GI motility models): more than 100 times
potency relative to cisapride in enhancing gastric antral motility ([1]; dog, fasted, oral): approximately 1000 times
minimum effective dose, change in motor index (MI) of gastric antral motility ([1]; dog, fasted, oral, 0 to 2 hour period after administration, statistical significance (Dunnett)): 1 micro g/kg
gastric antral motor activity ([1]; dog, fasted, oral, 0.1-10 micro g/kg, FIG. 1): increased the gastric antral motor activity in dose dependent manner
amplitude and frequency of contractions in the proximal colon ([2]; 1 micro g/kg, FIG. 4): enhanced
occurrence of giant migrating contractions ([2]; after treatment): facilitated the occurrence of giant migrating contractions

COCCCN1CCC(NC(=O)c2cc(Cl)c(N)c3c2OCC3)CC1 [prucalopride]
gastric antral motility ([1]; dog, fasted, oral, 0.1 mg/kg, FIG. 5): stimulated gastric antral motility
contractions of proximal colon ([2]; 0.1 mg/kg, FIG. 5): did not affect contractions of proximal colon
colonic motor activity ([2]; 0.3 mg/kg, FIG. 5): enhanced the colonic motor activity
gastro-duodenum contractions [3]: induced excessive gastro-duodenum contractions

CCOc1cc(N)c(Cl)cc1C(=O)NCC1CN(Cc2ccc(F)cc2)CCO1 (stereo not drawn) [mosapride]
gastric antral motility ([1]; dog, fasted, oral, 3 mg/kg, FIG. 3): tended to increase the antral motility
